Test results from DBAASP.
In brackets after ≈: the same amount, converted by molar mass. Several values for one entry are separate records, joined by “and”; a condition that tells them apart may be missing. Identical values can stand only once.

Assays:
Assay in all cases: ≥ marks a high value that may be exact or a test limit, other limits are often not marked, values filed in µg/mL are converted to µM
[1] = test system: Neurospora crassa CBS 327-54
Aspergillus fumigatus = test system: Aspergillus fumigatus
Micrococcus luteus A270 = test system: Micrococcus luteus A270
[2] = test system: Pseudomonas aeruginosa PTCC 2834
Escherichia coli D22 = test system: Escherichia coli D22
[3] = test system: Staphylococcus aureus PTCC 1442
[4] = test system: Escherichia coli BL21(DE3)
[5] = test system: Pseudomonas putida GPp104
Escherichia coli JM109 = test system: Escherichia coli JM109
Cupriavidus necator H16 = test system: Cupriavidus necator H16
[6] = test system: Bacillus anthracis Sterne 34F2
[7] = test system: Escherichia coli KCTC 1682
[8] = test system: Bacillus subtilis KCTC 3068
[9] = test system: Staphylococcus aureus CCARM 3089
[10] = test system: Burkholderia thailandensis
[11] = test system: Bacillus subtilis ATCC 9372
[12] = test system: Pseudomonas aeruginosa CCARM 2095
[13] = test system: Staphylococcus aureus KCTC 1621
[14] = test system: Staphylococcus epidermidis KCTC 1917
[15] = test system: Salmonella typhimurium KCTC 1926
[16] = test system: Staphylococcus aureus CCARM 3543
[17] = test system: Pseudomonas aeruginosa CCARM 2092
[18] = test system: Staphylococcus aureus CCARM 3001
[19] = test system: Pseudomonas aeruginosa KCTC 1637
[20] = test system: Pseudomonas aeruginosa CCARM 2109
[21] = test system: Candida albicans NCPF 1467
[22] = test system: Escherichia coli ATCC 25922
[23] = test system: Staphylococcus aureus 113
Staphylococcus aureus 75 = test system: Staphylococcus aureus 75
[24] = test system: Staphylococcus aureus 725
[25] = test system: Pseudomonas aeruginosa 1570
[26] = test system: Salmonella enterica subsp. enterica serovar Typhimurium ATCC 14028
[27] = test system: Acinetobacter baumannii 97830
[28] = test system: Staphylococcus aureus ATCC 25923
[29] = test system: Staphylococcus aureus NCTC 10788
[30] = test system: Acinetobacter baumannii 9840
[31] = test system: Escherichia coli NCTC 10418
[32] = test system: Bacillus subtilis ATCC 23857
Acinetobacter baumannii = test system: Acinetobacter baumannii
[33] = test system: Pseudomonas aeruginosa ATCC 15692
[34] = test system: Pseudomonas aeruginosa 5167
[35] = test system: Staphylococcus aureus ATCC 33591
[36] = test system: Staphylococcus epidermidis ATCC 12228
[37] = test system: Staphylococcus aureus 794
[38] = test system: Staphylococcus aureus 936
[39] = test system: Staphylococcus aureus CCARM 3090
[40] = test system: Enterococcus faecalis ATCC 51299
[41] = test system: Candida albicans ATCC 26790
[42] = test system: Actinomyces israelii ATCC 12102
[43] = test system: Porphyromonas gingivalis ATCC 33277
[44] = test system: Fusobacterium nucleatum NCTC 11326
[45] = test system: Enterococcus faecium ATCC 51559
[46] = test system: Streptococcus mutans ATCC 25175
[47] = test system: Staphylococcus aureus CCARM 3095

`CSCC[C@H](NC(=O)[C@H](CO)NC(=O)[C@@H](N)CO)C(=O)N[C@@H](CCCCN)C(=O)N[C@@H](CC(C)C)C(=O)N[C@@H](CO)C(=O)N[C@@H](Cc1ccccc1)C(=O)N[C@@H](CCCN=C(N)N)C(=O)N[C@@H](C)C(=O)N[C@@H](CCCN=C(N)N)C(=O)N[C@@H](C)C(=O)N[C@@H](Cc1ccc(O)cc1)C(=O)NCC(=O)N[C@@H](Cc1ccccc1)C(=O)N[C@@H](CCCN=C(N)N)C(=O)NCC(=O)N1CCC[C@H]1C(=O)NCC(=O)N1CCC[C@H]1C(=O)N[C@@H](CCC(N)=O)C(=O)N[C@@H](CC(C)C)C(=O)O` [SSMKLSFRARAYGFRGPGPQL] gave an MIC [1] of at least 50 µM, an MIC (Aspergillus fumigatus) of at least 80 µM and an MIC (Micrococcus luteus A270) of 15 µM (≈ 34.9 µg/mL). For the same compound, the MIC [2] was 20.6 µM (≈ 48 µg/mL), the MIC (Escherichia coli D22) was at least 150 µM and the MIC [3] was at least 43 µM.

`CC[C@H](C)[C@H](NC(=O)[C@H](Cc1ccc(O)cc1)NC(=O)[C@@H](NC(=O)[C@@H]1CCCN1C(=O)[C@H](CCCN=C(N)N)NC(=O)[C@@H]1CCCN1C(=O)[C@H](CC(N)=O)NC(=O)[C@@H](N)CCCN=C(N)N)C(C)C)C(=O)N1CCC[C@H]1C(=O)N[C@@H](CCC(N)=O)C(=O)N1CCC[C@H]1C(=O)N[C@@H](CCCN=C(N)N)C(=O)N1CCC[C@H]1C(=O)N1CCC[C@H]1C(=O)N[C@@H](Cc1cnc[nH]1)C(=O)N1CCC[C@H]1C(=O)N[C@@H](CCCN=C(N)N)C(=O)N[C@@H](CC(C)C)C(=O)O` [RNPRPVYIPQPRPPHPRL] was tested, and the MIC [4] was 0.313 µM (≈ 0.686 µg/mL), the MIC [5] was 6.25 µM (≈ 13.7 µg/mL) and the MIC (Escherichia coli JM109) was 6.25 µM (≈ 13.7 µg/mL). The MIC (Cupriavidus necator H16) was 25 µM (≈ 54.8 µg/mL).

Compound `CC(C)[C@H](NC(=O)[C@H](CCCCN)NC(=O)[C@H](CCCN=C(N)N)NC(=O)[C@H](CCCCN)NC(=O)[C@H](CCCCN)NC(=O)[C@H](CCCCN)NC(=O)[C@@H]1CCCN1C(=O)[C@H](CCC(N)=O)NC(=O)[C@H](CO)NC(=O)[C@H](Cc1c[nH]c2ccccc12)NC(=O)[C@H](CCCCN)NC(=O)[C@@H](NC(=O)[C@H](Cc1c[nH]c2ccccc12)NC(=O)[C@H](Cc1c[nH]c2ccccc12)NC(=O)[C@@H](NC(=O)[C@H](CCCCN)NC(=O)[C@H](Cc1c[nH]c2ccccc12)NC(=O)[C@H](Cc1c[nH]c2ccccc12)NC(=O)[C@@H](NC(=O)[C@H](CCCCN)NC(=O)[C@@H](N)CCCCN)[C@@H](C)O)[C@@H](C)O)[C@@H](C)O)C(=O)O` [KKTWWKTWWTKWSQPKKKRKV] has an MIC [6] of at least 59 µM, an MIC [7] of 2 µM (≈ 5.69 µg/mL) and an MIC [8] of 2 µM (≈ 5.69 µg/mL). It also gave an MIC [9] of 2 µM (≈ 5.69 µg/mL), an MIC [10] of at least 100 µM and an MIC [11] of 3.3 µM (≈ 9.39 µg/mL). It also gave an MIC [12] of 8 µM (≈ 22.8 µg/mL), an MIC [13] of 2 µM (≈ 5.69 µg/mL) and an MIC [14] of 1.41 µM (≈ 4.02 µg/mL). For the same compound, the MIC [15] was 1.41 µM (≈ 4.02 µg/mL), the MIC [16] was 1 µM (≈ 2.85 µg/mL) and the MIC [17] was 8 µM (≈ 22.8 µg/mL). The MIC [18] was 2 µM (≈ 5.69 µg/mL), the MIC [19] was 2.83 µM (≈ 8.05 µg/mL) and the MIC [20] was 8 µM (≈ 22.8 µg/mL).

For `CC(C)C[C@H](NC(=O)[C@H](CC(C)C)NC(=O)[C@H](CCCCN)NC(=O)[C@H](CCCCN)NC(=O)[C@H](CC(C)C)NC(=O)[C@H](CC(C)C)NC(=O)[C@H](CCCCN)NC(=O)[C@H](CC(C)C)NC(=O)[C@@H](N)Cc1ccccc1)C(N)=O` [FLKLLKKLL], the MIC [21] was 7 µM (≈ 7.8 µg/mL), the MIC [22] was 28.7 µM (≈ 32 µg/mL) and the MIC [23] was 7.17 µM (≈ 7.99 µg/mL). For the same compound, the MIC (Staphylococcus aureus 75) was 7.17 µM (≈ 7.99 µg/mL), the MIC [24] was 7.17 µM (≈ 7.99 µg/mL) and the MIC [25] was 7.17 µM (≈ 7.99 µg/mL). The MIC [26] was 14.3 µM (≈ 16 µg/mL), the MIC [27] was 7.17 µM (≈ 7.99 µg/mL) and the MIC [28] was 14.3 µM (≈ 16 µg/mL). The MIC [29] was 7 µM (≈ 7.8 µg/mL), the MIC [30] was 10.1 µM (≈ 11.3 µg/mL) and the MIC [31] was 14 µM (≈ 15.6 µg/mL). It also gave an MIC [32] of 3.59 µM (≈ 4 µg/mL), an MIC (Acinetobacter baumannii) of 10.1 µM (≈ 11.3 µg/mL) and an MIC [33] of 7.17 µM (≈ 7.99 µg/mL). For the same compound, the MIC [34] was 14.3 µM (≈ 16 µg/mL), the MIC [35] was 7.17 µM and 14.3 µM and the MIC [36] was 14.3 µM (≈ 16 µg/mL). It also gave an MIC [37] of 14.3 µM (≈ 16 µg/mL) and an MIC [38] of 7.17 µM (≈ 7.99 µg/mL).

`CC[C@H](C)[C@H](NC(=O)[C@H](CC(C)C)NC(=O)[C@H](CCCCN)NC(=O)[C@@H](NC(=O)[C@@H](NC(=O)[C@H](CCCN=C(N)N)NC(=O)[C@@H](N)CCCCN)[C@@H](C)CC)C(C)C)C(=O)N[C@@H](CC(C)C)C(=O)N[C@@H](CCCCN)C(=O)N[C@@H](Cc1c[nH]c2ccccc12)C(=O)N[C@@H](CC(C)C)C(=O)N[C@@H](CCCN=C(N)N)C(N)=O` [KRIVKLILKWLR] gave an MIC [39] of 8 µM (≈ 12.5 µg/mL), an MIC [40] of at least 39.9 µM and an MIC [7] of 8 µM (≈ 12.5 µg/mL). The MIC [8] was 5.66 µM (≈ 8.85 µg/mL), the MIC [41] was 9.97 µM (≈ 15.6 µg/mL) and the MIC [9] was 4 µM (≈ 6.26 µg/mL). For the same compound, the MIC [42] was 2.5 µM (≈ 3.91 µg/mL), the MIC [43] was 2.5 µM (≈ 3.91 µg/mL) and the MIC [44] was 4.99 µM (≈ 7.81 µg/mL). For the same compound, the MIC [12] was 16 µM (≈ 25 µg/mL), the MIC [14] was 2 µM (≈ 3.13 µg/mL) and the MIC [15] was 2.83 µM (≈ 4.43 µg/mL). The MIC [45] was 4 µM (≈ 6.26 µg/mL), the MIC [46] was 2.5 µM (≈ 3.91 µg/mL) and the MIC [47] was 4 µM (≈ 6.26 µg/mL). It also gave an MIC [19] of 8 µM (≈ 12.5 µg/mL) and an MIC [20] of 8 µM (≈ 12.5 µg/mL).
